Laboratory results: article PMC6005897, “Ligand-Induced Variations in Structural and Dynamical Properties Within an Enzyme Superfamily” (Frontiers in Molecular Biosciences, 2018)
Where two headings read alike, the source gives them in different places.

Experiments:
[1] = target: T1, human RNase 4 (RN4_Human) (Homo sapiens, UniProt P34096); experiment: NMR chemical shift titration, ligand binding to human RNase 4; conditions: 298 K, 15 mM sodium acetate pH 5.0, ± standard deviation of the fit
T1 construct: made in house; host or cells: Escherichia coli
T1 sequence (P34096 29-147): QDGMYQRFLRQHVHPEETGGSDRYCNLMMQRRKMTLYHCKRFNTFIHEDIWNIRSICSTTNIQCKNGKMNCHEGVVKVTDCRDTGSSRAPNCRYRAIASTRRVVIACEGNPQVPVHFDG
Text: (§1) The pH was carefully monitored throughout the experiments and readjusted with Tris-base or acetic acid if necessary. Ligands 3′-UMP (Chemical Impex Intl Inc., Wood Dale, IL, USA) and 5′-AMP (BioBasic Inc., Markham, ON Canada) were purchased commercially and dissolved in the same buffer as the protein. ^1H-^15N sensitivity-enhanced HSQC experiments were acquired at 800 MHz (18.8 T) using spectral widths (points) of 2025 (160) and 8000 Hz (1024) in the ω1 and ω2 dimensions, respectively. Titration experiments were performed for each ligand with enzyme:ligand molar ratios up to 1:12 (1:12), 1:18 (1:18), 1:24 (1:18), 1:30 (1:18) and 1:18 (1:30) for the 3′-UMP- (5′-AMP-) bound states of bovine RNase A and human RNases 2, 3, 4, and 5, respectively.
(§2) The equilibrium dissociation constant (Kd) was calculated by plotting weighted average chemical shift differences (Δδobs) as a function of ligand concentration and fitting the data using the following equation: […]
(§3) The Kd was estimated by simultaneously fitting the data of all residues affected by ligand binding (Williamson, [2013]). We note that Δδmax is a fitted parameter and not an experimentally measured one. […] Chemical shift perturbations (Δδobs) were calculated as the difference in the weighted average chemical shift of the ligand-bound (5′-AMP and 3′-UMP) and apo states, as shown below. […]

[2] = target: bovine RNase A (RNA_Bovine); parameters: method as in Gagné et al. ([2012]); conditions: ref Gagné et al. ([2012]); cited from earlier work
[3] = target: T2, human RNase 3 (RN3_Human) (Homo sapiens, UniProt P12724); experiment: NMR chemical shift titration, ligand binding to human RNase 3
T2 construct: made in house; host or cells: Escherichia coli
T2 sequence (P12724 28-160): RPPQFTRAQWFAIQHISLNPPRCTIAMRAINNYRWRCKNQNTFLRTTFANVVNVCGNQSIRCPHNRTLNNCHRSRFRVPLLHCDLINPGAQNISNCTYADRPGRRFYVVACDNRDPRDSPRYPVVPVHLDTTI
Text: as §1
The equilibrium dissociation constant (Kd) was calculated by plotting weighted average chemical shift differences (Δδobs) as a function of ligand concentration and fitting the data using the following equation:
(1) Δδobs=Δδmax/2[P]t([P]t+[L]t/[P]t[P]t+Kd −([P]t+[L]t/[P]t[P]t+Kd)^2−4[L]t/[P]t[P]^2t)
The Kd was estimated by simultaneously fitting the data of all residues affected by ligand binding (Williamson, [2013]). We note that Δδmax is a fitted parameter and not an experimentally measured one. Uncertainties on these values are given by the standard deviations of the fits. Chemical shift perturbations (Δδobs) were calculated as the difference in the weighted average chemical shift of the ligand-bound (5′-AMP and 3′-UMP) and apo states, as shown below.
(2) Δδobs=(ΔδH)^2+(0.2ΔδN)^2/2

[4] = target: T3, human RNase 2 (RN2_Human) (Homo sapiens, UniProt P10153); experiment: NMR chemical shift titration, ligand binding to human RNase 2
T3 construct: made in house; host or cells: Escherichia coli
T3 sequence (P10153 28-161): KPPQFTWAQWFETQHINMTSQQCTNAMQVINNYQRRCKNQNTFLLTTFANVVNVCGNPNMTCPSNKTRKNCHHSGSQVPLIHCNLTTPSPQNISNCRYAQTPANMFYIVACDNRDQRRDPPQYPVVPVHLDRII
Text: as §1, §2, §3

[5] = target: T4, human RNase 5 (RN5_Human) (Homo sapiens, UniProt P03950); experiment: NMR chemical shift titration, ligand binding to human RNase 5; conditions: 298 K, 15 mM sodium acetate pH 5.0, ± standard deviation of the fit
T4 construct: made in house; host or cells: Escherichia coli
T4 sequence (P03950 25-147): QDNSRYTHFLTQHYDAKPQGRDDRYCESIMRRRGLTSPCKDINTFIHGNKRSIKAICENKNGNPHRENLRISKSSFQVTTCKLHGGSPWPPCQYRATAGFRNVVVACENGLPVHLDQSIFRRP
Text: as §1, §2, §3

[6] = RN3_Human, 298 K, 15 mM sodium acetate pH 5.0, ± standard deviation of the fit, read-out: Kd

Question: For `O=c1ccn([C@@H]2O[C@H](CO)[C@@H](OP(=O)(O)O)[C@H]2O)c(=O)[nH]1` [3′-UMP], which Kd [1] is on record?
Answer: 10300 µM

Question: And the Kd [2]?
Answer: 9.7 ± 0.9 µM

Question: And the Kd [3, 6]?
Answer: 460 ± 100 µM

Question: What about the Kd [4] of the same compound?
Answer: 456 ± 10.6 µM

Question: What about the Kd [5] of the same compound?
Answer: 1940 µM

Question: Which results are given for `Nc1ncnc2c1ncn2[C@@H]1O[C@H](COP(=O)(O)O)[C@@H](O)[C@H]1O` [5′-AMP]?
Answer: Kd [2]: 124 ± 1 µM; Kd [3]: 300 ± 45 µM; Kd ([4]; RN2_Human, 298 K, 15 mM sodium acetate pH 5.0, ± standard deviation of the fit, read-out: Kd): 540 ± 31.4 µM

Question: With dATATA as the compound, how does the Kd [1] read?
Answer: 72.9 ± 9 µM

Question: What about the Kd [3, 6] of the same compound?
Answer: 302 ± 31 µM
